Reference: patent US20120115955A1, “Methods for tumor treatment and adipogenesis differentiation” (Centro de Investigacion Principe Felipe, priority 2010, published 2012)
“Also recorded” adds a separate entry of the source.

Columns and labels:
[1] = system: HCCLs (MALME-3M, MCF-7, SK-OV-3, HUH-7); assay: Flow cytometry FSC and SSC parameters of HCCLs; type: cell-based, human; conditions: mini-screen of unsaturated fatty acids associated with albumin; HUH-7, SK-OV-3, MCF-7, MALME-3M
MALME-3M cells = assay: Nile-Red neutral lipid / LD quantification by flow cytometry (FL2); type: cell-based, human; conditions: 12 hours, vs DMSO control; for LD accumulation (Nile-RED): 100 μg/ml each fatty acid, except 10 μg/ml docosahexaenoic and arachidonic acid; for fold induction at 100 µg/mL: Homo sapiens, 100 μg/ml, read-out: generation of LDs, fold induction (Nile-RED FL2)
Procedure: FIG. 6. […] MALME-3M cells were cultured in the presence of 10 μg/ml of docosahexaenoic acid, 100 μg/ml of nervonic acid, 100 μg/ml of erucic acid, 10 μg/ml of arachidonic acid, 100 μg/ml of linolenic acid, 100 μg/ml of linoleic acid, 100 μg/ml of oleic acid, 100 μg/ml of palmitoleic acid, 100 μg/ml of elaidic acid, or 100 μg/ml petroselinic acid for 12 hours. Fatty acids were dissolved in DMSO; therefore the cells cultured with RPMI+10% FBS and treated with DMSO only were considered negative controls. The Nile-Red analysis was performed as described in the Material and Methods section. Quantification in the FL2 parameter was assessed by the FlowJo software. Fold induction was estimated by calculating the ratio between treated conditions and the untreated condition (control). The results are representative of three independent experiments.
(§1) Cells (10^5) were washed twice in PBS and then incubated with 25 μg/ml of Nile-Red (Invitrogen) in PBS (15 min, 4° C.). After incubation, cells were filtered through a 30 μm sieve (CellTrics, Partec). Fluorescent emission (525 nm) was registered in the FL2 channel by a Beckman Coulter Flow Cytometer (Cytomics™ FC 500). Data files were analyzed using the FlowJo flow cytometer analysis software.

HUH-7 cells = type: cell-based
Procedure: as §1

| Compound | modifications in the forward and side scatter parameters [1] | LD accumulation (Nile-RED) (MALME-3M cells) | fold induction at 100 µg/mL (MALME-3M cells) | LD accumulation by single fatty acid (HUH-7 cells) |
| --- | --- | --- | --- | --- |
| CCCCCCC=CCCCCCCCC(=O)O [palmitoleic acid, hexadec-9-enoic acid] | remarkable modifications in the forward and side scatter parameters | LD accumulation was induced | ≥ 6 |  |
| CCCCCCCC/C=C\CCCCCCCCCCCC(=O)O [erucic acid, reference compound] |  | LD accumulation was induced |  |  |
| CCCCCCCCCCC/C=C\CCCCC(=O)O [petroselinic acid, cis-6-octadecenoic] |  | LD accumulation was induced | ≥ 6 |  |
| CCCCCCCC/C=C/CCCCCCCC(=O)O [elaidic acid, reference compound] |  | LD accumulation was induced |  |  |
| CCCCC/C=C\C/C=C\CCCCCCCC(=O)O [linoleic acid, cis, cis-9,12-octadecadienoic acid] | remarkable modifications in the forward and side scatter parameters | triggers LD accumulation; also recorded: LD accumulation was induced | ≥ 6 | triggers LD accumulation |
| CCCCCCCC/C=C\CCCCCCCC(=O)O [oleic acid, (9Z)-Octadec-9-enoic acid] | remarkable modifications in the forward and side scatter parameters | LD accumulation was induced | ≥ 6 |  |
